Numbers after ± are expanded uncertainties.
Assays:
[1] = for Normal melting temperature: Crystal, DTA; for vapor or sublimation pressure: Liquid, Determined from thermal gravimetric analysis data
[2] = Molar enthalpy of transition or fusion; conditions: Crystal; DSC
[3] = Boiling temperature at pressure P; conditions: 94.4 kPa; Liquid; DSC

O=[N+]([O-])c1cc[n+]([O-])cc1 [4-nitropyridine N-oxide]
Conditions	Molar enthalpy of transition or fusion [kcal/mol]	Normal melting temperature [°C]
[1]	–	160.80 ± 5
[2]	4.18 ± 1.03	–

Cc1ccc[n+]([O-])c1 [3-picoline N-oxide]
[1]
Conditions	vapor or sublimation pressure [kPa]
433.15 K	4.26 ± 1.1
435.15 K	4.48 ± 1.1
440.15 K	5.4 ± 1.2
443.15 K	5.93 ± 1
445.15 K	6.29 ± 1.3
447.15 K	6.89 ± 1
450.15 K	7.47 ± 0.67
453.15 K	8.23 ± 1.1
455.15 K	8.91 ± 0.95
457.15 K	9.28 ± 1.2
460.15 K	10.15 ± 1.1
463.15 K	10.93 ± 1.1
465.15 K	11.69 ± 1.1
467.15 K	12.28 ± 1.1
470.15 K	13.42 ± 1.1
473.15 K	14.64 ± 1.4
475.15 K	15.17 ± 1.4
477.15 K	16.14 ± 1.3
480.15 K	17.37 ± 1.4
483.15 K	18.4 ± 1.4
485.15 K	19.19 ± 1.5
487.15 K	20.28 ± 1.8
490.15 K	21.69 ± 2.1
493.15 K	23.24 ± 2.5
495.15 K	24.75 ± 3
497.15 K	25.56 ± 3.2
500.15 K	27.36 ± 3.9
503.15 K	29.43 ± 4.5
505.15 K	31 ± 5.4
507.15 K	32.53 ± 6
510.15 K	35.18 ± 7.1
513.15 K	37.62 ± 8
515.15 K	38.66 ± 8.5
517.15 K	40.64 ± 8.8

Conditions	Boiling temperature at pressure P [°C]	Molar enthalpy of transition or fusion [kcal/mol]	Normal melting temperature [°C]
[1]	–	–	37.10 ± 8.2
[2]	–	2.52 ± 0.502	–
[3]	283.80 ± 12	–	–

O=C(O)c1cc[n+]([O-])cc1 [4-pyridinecarboxylic acid N-oxide]
Conditions	Molar enthalpy of transition or fusion [kcal/mol]	Normal melting temperature [°C]
[1]	–	268.50 ± 4.4
[2]	5.76 ± 1.53	–

NC(=O)c1ccc[n+]([O-])c1 [nicotinamide N-oxide]
Conditions	Normal melting temperature [°C]
[1]	289.50 ± 7.8

[O-][n+]1cccc2ccccc21 [quinoline 1-oxide]
Conditions	Molar enthalpy of transition or fusion [kcal/mol]	Normal melting temperature [°C]
[1]	–	55.40 ± 4.4
[2]	2.45 ± 0.382	–

[O-][n+]1ccccc1S [2-mercaptopyridine N-oxide]
Conditions	Molar enthalpy of transition or fusion [kcal/mol]	Normal melting temperature [°C]
[1]	–	71.20 ± 5.2
[2]	3.18 ± 0.932	–

O=C(O)c1ccc[n+]([O-])c1 [3-pyridinecarboxylic acid N-oxide]
Conditions	Molar enthalpy of transition or fusion [kcal/mol]	Normal melting temperature [°C]
[1]	–	258.30 ± 4.6
[2]	5.63 ± 0.956	–

Cc1cc(C)c[n+]([O-])c1 [3,5-dimethylpyridine N-oxide]
Conditions	Boiling temperature at pressure P [°C]	Molar enthalpy of transition or fusion [kcal/mol]	Normal melting temperature [°C]
[1]	–	–	101.30 ± 4.4
[2]	–	2.96 ± 0.311	–
[3]	291.70 ± 6	–	–

Cc1cc[n+]([O-])cc1 [4-methylpyridine-N-oxide]
Conditions	Boiling temperature at pressure P [°C]	Molar enthalpy of transition or fusion [kcal/mol]	Normal melting temperature [°C]
[1]	–	–	184.60 ± 4.8
[2]	–	4.51 ± 0.884	–
[3]	287.30 ± 6.8	–	–

O=C(O)c1ccccc1 [benzoic acid]
Conditions	Normal melting temperature [°C]
[1]	121.60 ± 1.1

O=C(O)c1cccc[n+]1[O-] [picolinic acid N-oxide]
Conditions	Boiling temperature at pressure P [°C]	Molar enthalpy of transition or fusion [kcal/mol]	Normal melting temperature [°C]
[1]	–	–	163.80 ± 5.4
[2]	–	7.21 ± 3.11	–
[3]	267.60 ± 10	–	–

[O-][n+]1cccc(O)c1 [3-hydroxypyridine-N-oxide]
Conditions	Molar enthalpy of transition or fusion [kcal/mol]	Normal melting temperature [°C]
[1]	–	189.70 ± 6.2
[2]	4.5 ± 1.22	–

[O-][n+]1ccccc1 [pyridine N-oxide]
[1]
Conditions	vapor or sublimation pressure [kPa]
425.15 K	2.5 ± 0.55
427.15 K	2.66 ± 0.54
433.15 K	3.33 ± 0.59
435.15 K	3.59 ± 0.64
440.15 K	4.28 ± 0.73
443.15 K	4.86 ± 1
445.15 K	5.22 ± 0.9
447.15 K	5.5 ± 0.9
450.15 K	6.19 ± 0.99
453.15 K	6.84 ± 1.1
455.15 K	7.36 ± 1.1
457.15 K	7.89 ± 2.3
460.15 K	8.88 ± 1.4
463.15 K	9.76 ± 1.6
465.15 K	10.41 ± 1.6
467.15 K	11.15 ± 1.7
470.15 K	12.44 ± 2
473.15 K	13.57 ± 2.1
475.15 K	14.4 ± 2.3
477.15 K	15.28 ± 2.4
480.15 K	16.58 ± 2.6

Conditions	Boiling temperature at pressure P [°C]	Molar enthalpy of transition or fusion [kcal/mol]	Normal melting temperature [°C]
[1]	–	–	63.80 ± 8.2
[2]	–	2.31 ± 0.932	–
[3]	267.60 ± 29	–	–

Reference: the NIST ThermoML archive (doi:10.1016/j.jct.2019.04.014)
